US4315027A, “Pesticidal symmetrical and asymmetrical sulfinyldicarbamates containing a heterocyclic group” (priority 1980, dated 1982)

System: mosquito larvae, Culex pipiens
Assay: Larvicidal activity against mosquito larvae in water
Format: in vivo
Details: 1 ml acetone solution in 100 ml water, 3rd instar larvae
Method: Representative compounds of the N,N'-sulfinyldicarbamate esters of the invention were tested for insecticidal activity against two insect species, house flies, Musca domestica, and mosquito larvae, Culex pipiens. Stock 1% concentrated solutions of each of the test compounds were made in acetone, and such solutions diluted with acetone to a concentration of 0.001-0.1%. House flies were treated topically on the notum by 1 μl of each of the diluted acetone solutions and percent mortality was counted 24 hours after application. Insects were held at a constant temperature of 60° F. Larvicidal activity was determined by applying 1 ml of the acetone solution in 100 ml of water containing 20 3rd instar mosquito larvae. Results are presented as LD50 in μg/g for house flies and LC50 in ppm for mosquito larvae.

SMILES | Culex LC50
CCOC(=O)N(C)[S+]([O-])N(C)C(=O)Oc1cccc2c1OC(C)(C)C2 (stereo not drawn) [VIII, 2,3-dihydro-2,2-dimethylbenzofuranyl-7 N-[N'-(ethoxycarbonyl)-N'-(methylaminosulfinyl)]-N-methylcarbamate] | 0.04 ppm
CCCCCCCOC(=O)N(C)[S+]([O-])N(C)C(=O)Oc1cccc2c1OC(C)(C)C2 (stereo not drawn) [X, 2,3-dihydro-2,2-dimethylbenzofuranyl-7 N-[N'-(n-heptoxycarbonyl)-N'-(methylaminosulfinyl)]-N-methylcarbamate] | 0.015 ppm
CCCOC(=O)N(C)[S+]([O-])N(C)C(=O)Oc1ccccc1OC(C)C (stereo not drawn) [XI, 2-isopropoxyphenyl N-[N'-(n-propoxycarbonyl)-N'-(methylaminosulfinyl)]-N-methylcarbamate] | 0.18 ppm
